The values below come from article PMC12117711, “The contribution of cyclic imide stereoisomers on cereblon-dependent activity†” (Chemical Science, 2025).

The target in data set [1] is T1, GSPT1-GFP in HEK293T cells (Homo sapiens, UniProt P15170+Q96SW2).
T1 construct: expressed in transfected cells
Put plainly: Degradation assay by flow cytometry, GSPT1-GFP. In kind it is cell-based. From the text:
μg/mL), and 10% (v/v) FBS. […]
Degradation assay by flow cytometry
resuspension in DMEM +/– without phenol red. For IKZF1 degradation assay, propidium
equipped with a high throughput sampler.
using the BD FACSDiva software v9.1. For each experimental condition, the arithmetic mean
comparing compound treatment to DMSO control. […]
The same analysis was also applied to the (S)-
dependent activity, we adjusted the dose-response curves accordingly. Because dose-
within the error margins of the original curve.
squares F-test. This analysis determined whether there was a statistically significant
derived (S)-enantiomer. […]
A general note: A flow cytometer gives signals particle by particle.

In data set [2] the target is His6-CRBN/DDB1 (Homo sapiens, UniProt Q96SW2). The data set is described as follows: TR-FRET ligand displacement assay (Thal-FITC tracer) with His6-CRBN/DDB1. Particulars: for IC50 / pIC50 (M): Thalidomide-FITC tracer 50 nM.
Data set [3] addresses His6-CRBN/DDB1 complex (UniProt Q96SW2).
Data set [4] is described as follows: Time-course study of racemization of lenalidomide, photo-lenalidomide and deuterated analogs in RPMI medium. In kind it is physicochemical. The note with it: RPMI media, 37 °C, read-out: t50%ee (racemization half-life) (converted). How it is done:
Time-course Study of Racemization of Lenalidomide and Photo-lenalidomide in RPMI Medium To a 12-well plate, 25 μL of the indicated compound (4 mM stock solution in methanol) was added and methanol was air-dried. 1 mL of RPMI medium was added to each well containing the compound and the plate was incubated at 37 °C, 5% CO2. At the indicated time point, RPMI medium containing the compound was collected in a 5-mL Eppendorf tube, and 4 mL of HPLC-grade ethyl acetate was added to each tube. The tube was shaken for 2 min to extract the compounds into ethyl acetate. After two layers were separated, 3 mL was taken from the organic layer and filtered through sodium sulfate to remove residual water. To the same 5-mL Eppendorf tube, 3 mL of HPLC-grade ethyl acetate was added to repeat the extraction step.
The taken organic layers were combined and concentrated in vacuo to dryness. The sample was resuspended in HPLC grade isopropanol and analyzed with Waters Prep 150 LC System equipped with a chiral column with conditions indicated in the synthetic procedure.
The experimental data obtained were fitted to the following rate equation for racemization:1 […]
Where Y represents the ratio of the other enantiomer formed via racemization with constraints 2 of Top = 1 (100% conversion) and Bottom = 0 (0% conversion), Krac is the rate constant for the racemization, and t is incubation time. For the sake of symmetry, rate constants are the […]
In the analysis of the above curve fitting model, parameter estimation for Krac was carried out using nonlinear least squares regression, employing the “curve_fit” function from the SciPy library in Python. This approach yielded an estimated value for Krac. To ascertain the precision of this estimation and to quantify the associated uncertainty, the standard error of Krac was calculated based on the diagonal elements of the covariance matrix returned by the curve fitting procedure. Subsequently, to construct a 95% confidence interval for the extrapolated racemization curves, the t-distribution was employed, considering the degrees of freedom (the number of data points minus the number of fitted parameters). The critical t-value for a 95% confidence level was determined by using the “t.ppf” function from the SciPy library in Python, and the confidence interval for Krac was then derived as the following equation: […]
Where tcritical is the critical t-value for a 95% confidence level and SE(Krac) is the standard error […]
The upper and lower bounds of this interval were further utilized to generate the corresponding confidence bounds for the curve, offering a visual representation of the uncertainty inherent in […]

The target of data set [5] is T2, His6-CRBN/DDB1 complex (UniProt Q96SW2 1-442; Q16531 1-1140).
T2 construct: cereblon (CRBN), E3 ligase substrate adapter; DDB1, in complex with His6-CRBN; Column 'Protein' of S0003 says only 'CRBN'; the text and legends name His6-CRBN/DDB1 for this TR-FRET assay; also called cereblon; source: recombinant
The data set is described as follows: AlphaScreen or HTRF; competitive TR-FRET ligand displacement; peptide titrated against recombinant His6-CRBN/DDB1 (2.5 nM) with the tracer Thalidomide-FITC (50 nM); KD from IC50 by the correction factor 1.426 (tracer KD 2-site 117.3 nM). The note with it: both partners purified.

[6] abbreviates: HEK293T, 3 h, flow cytometry, read-out: DC50.
Setting [7] is: KD, competitive TR-FRET, His6-CRBN/DDB1.
Where [8] appears, read: IC50 (M), Protein CRBN, protein […].
Setting [9] is: KD (M), Protein CRBN, from IC50 with Correction Factor 1.43.
Setting [10] is: Protein CRBN, from IC50 with Correction Factor 1.43.
[11] abbreviates: IC50 (nM), Protein CRBN, protein […].
[12] abbreviates: KD (nM), Protein CRBN, from IC50 with Correction Factor 1.43.

Where “and” joins values, the source holds several entries; their conditions need not be identical. Equal values may be shown once. Read-outs that look alike come from different tables or passages of the source. Non-standard residues stand in square brackets, D forms with d. Residues, ends and D or L forms follow the SMILES beside them. No end group written: not given here. *: point of attachment. epicN = C-terminal cyclic asparagine (aspartimide), (R)-epimer, epimer of cN, O=C1C[C@@H](N*)C(=O)N1; Aspartimide = O=C1C[C@H](N*)C(=O)N1; Fmoc = O=C(OCC1c2ccccc2-c2ccccc21)*; X3 = O=C1CC[C@@H](N*)C(=O)N1; X1 = O=C1C[C@@H](N*)C(=O)N1; X2 = O=C1CC[C@H](N*)C(=O)N1

Consider `[2H]C1([2H])CC([2H])(N2Cc3cc(CNC(=O)Nc4ccc(C)c(Cl)c4)ccc3C2=O)C(=O)NC1=O` (racemic) [rac-CC885-d3], for which the DC50 (in general, the midpoint of the concentration-degradation curve) in data set [1] (setting [6]) is at most 2 nM. For the same molecule, in data set [2] (setting [7]), the Kd (in general, the constant that tells how readily two partners part at equilibrium) is at most 4e-09 M.

GFP-FcQ displayed an in vitro monoubiquitination with K0-ubiquitin mediated by the CRL4^CRBN complex, fold over methylated GFP-FcQ (GFP-FcQMe) in data set [3] of 4.8 fold.

For the molecule `O=C(CNC(=O)CNC(=O)OCC1c2ccccc2-c2ccccc21)NCC(=O)N[C@@H](Cc1ccccc1)C(=O)N[C@@H]1CCC(=O)NC1=O` [Fmoc-GGGFepicQ] (Fmoc-GGGF-X3), the IC50 (in general, the point on the concentration scale where inhibition reaches its midpoint) in data set [2] (setting [8]) was determined as 7.69e-07 M. This molecule also returned a Kd in data set [2] (setting [9]) of 5.39e-07 M.

As to `Cc1sc2c(c1C)C(c1ccc(Cl)cc1)=N[C@@H](CC(=O)NCCCCCCCCC(=O)N[C@@H](Cc1ccccc1)C(=O)N[C@H]1CC(=O)NC1=O)c1nnc(C)n1-2` [JQ1-FcN], in data set [2] (Protein CRBN), the “pIC50 (M)” value was determined as 7.42 M. The molecule also gave an IC50 in data set [2] (Protein CRBN, protein […]) of 3.8e-08 M. Moreover, in data set [2] (setting [10]), the Kd is 2.66e-08 M and 2.7e-08 M; the “pKD (M)” value amounted to 7.57 M.

Molecule `O=C(CNC(=O)CNC(=O)OCC1c2ccccc2-c2ccccc21)NCC(=O)N[C@@H](Cc1ccccc1)C(=O)N[C@H]1CC(=O)NC1=O` [Fmoc-GGGFcN] (Fmoc-GGGF-Aspartimide) registered a Kd in data set [2] (setting [9]) of 3.67e-08 M.

For `Cc1sc2c(c1C)C(c1ccc(Cl)cc1)=N[C@@H](CC(=O)NCCCCCCCCC(=O)N[C@@H](Cc1ccccc1)C(=O)N[C@H]1CCC(=O)NC1=O)c1nnc(C)n1-2` [JQ1-FcQ], in data set [2] (Protein CRBN), the “pIC50 (M)” value was 6.86 M. Also, the concentration for half-maximal inhibition (IC50) in data set [2] (Protein CRBN, protein […]) came out at 1.38e-07 M. Further, in data set [2] (setting [10]), the Kd was 9.65e-08 M and 9.7e-08 M; the “pKD (M)” value is given as 7.02 M.

As to `C[C@H](NC(=O)CNC(=O)CNC(=O)CN)C(=O)N[C@@H]1CC(=O)NC1=O` [GGGAepicN] (H-GGGA-X1), the IC50 in data set [2] (setting [8]) worked out at 1.12e-05 M.

With `Nc1cccc2c1CN([C@@H]1CCC(=O)NC1=O)C2=O` [(R)-lenalidomide], the half-life – broadly, the time in which the quantity being followed falls by half – at 100 µM in data set [4] was 4.3 h.

With `[2H]C1([2H])CC([2H])(N2Cc3c(N)cccc3C2=O)C(=O)NC1=O` (racemic) [rac-Len-d3], the half-life at 100 µM in data set [4] was 24 to 25 h.

In the case of `Cc1ccc(NC(=O)NCc2ccc3c(c2)CN(C2CCC(=O)NC2=O)C3=O)cc1Cl` (racemic) [rac-CC885, CC885, reference compound], in data set [2] (setting [7]), the Kd is at most 4e-09 M.

As to `[2H]C1([2H])C[C@@]([2H])(N2Cc3cc(CNC(=O)Nc4ccc(C)c(Cl)c4)ccc3C2=O)C(=O)NC1=O` [(R)-CC885-d3], the DC50 in data set [1] (setting [6]) was determined as 25 nM. In addition, the affinity in data set [2] (setting [7]), expressed as Kd, was 4.01e-07 M.

Turning to `Nc1cccc2c1CN(C1CCC(=O)NC1=O)C2=O` (stereo not drawn) [lenalidomide], the half-life at 100 µM in data set [4] was 4.2 to 4.3 h.

Molecule GFP-FepicN had an in vitro monoubiquitination with K0-ubiquitin mediated by the CRL4^CRBN complex, fold over methylated GFP-FcQ (GFP-FcQMe); did not reach statistical significance in data set [3] of 1.3 fold.

Take `[2H]C1([2H])C[C@]([2H])(N2Cc3cc(CNC(=O)Nc4ccc(C)c(Cl)c4)ccc3C2=O)C(=O)NC1=O` [(S)-CC885-d3]: the DC50 in data set [1] ((S) in the (S)-sample, read-out: predicted DC50 of the (S)-stereoisomer, adjusted for (S)-stereoisomer) is 1.2 ± 0.3 nM; in data set [1] (setting [6]), at most 2 nM. In addition, the Kd in data set [2] (setting [7]) was at most 3e-09 M; in data set [2] (predicted KD of the (S)-stereoisomer, ligand displacement assay adjusted for (S)-stereoisomer, (S)-stereoisomer in the (S)-sample, corrected for racemization), 3.2e-09 ± 1e-10 M.

GFP-FepicQ showed an in vitro monoubiquitination with K0-ubiquitin mediated by the CRL4^CRBN complex, fold over methylated GFP-FcQ (GFP-FcQMe) in data set [3] of 2.4 fold.

`O=C(CNC(=O)CNC(=O)OCC1c2ccccc2-c2ccccc21)NCC(=O)N[C@@H](Cc1ccccc1)C(=O)N[C@H]1CCC(=O)NC1=O` [Fmoc-GGGFcQ] (Fmoc-GGGF-X2): the IC50 in data set [2] (setting [8]) was 1.28e-07 M. The molecule also came in with a Kd in data set [2] (setting [9]) of 8.94e-08 M.

Regarding `O=C(CNC(=O)CNC(=O)OCC1c2ccccc2-c2ccccc21)NCC(=O)N[C@@H](Cc1ccccc1)C(=O)N[C@@H]1CC(=O)NC1=O` [Fmoc-GGGFepicN] (Fmoc-GGGF-X1), the IC50 in data set [2] (setting [11]) is 4.08e-06 M; in data set [2] (pIC50 (M), Protein CRBN), 4.07e-06 M. Further, the Kd in data set [2] (setting [9]) is 2.86e-06 M; in data set [2] (setting [7]), 2.86e-06 M and 2.87e-06 M; in data set [2] (pKD (M), Protein CRBN, from IC50 with Correction Factor 1.43) it was 2.88e-06 M.

With GFP-FcN, the in vitro monoubiquitination with K0-ubiquitin mediated by the CRL4^CRBN complex, fold over methylated GFP-FcQ (GFP-FcQMe) in data set [3] is 7.1 fold.

For the molecule `CN1C(=O)CCC(N2Cc3c(N)cccc3C2=O)C1=O` (stereo not drawn) [Me-Len, reference compound], the IC50 in data set [2] (setting [8]) and in data set [2] (setting [11]) was 1.53e-05 M in each case. For the same molecule, the Kd in data set [2] (setting [9]), in data set [2] (setting [12]) and in data set [2] (setting [7]) was 1.07e-05 M in each case.

In the case of `Nc1cccc2c1CN([C@H]1CCC(=O)NC1=O)C2=O` [(S)-lenalidomide], the half-life at 100 µM in data set [4] was 4.2 h.

For `Cc1ccc(NC(=O)NCc2ccc3c(c2)CN(C2CCC(=O)NC2=O)C3=O)cc1Cl` (racemic) [rac-CC-885], in data set [2] (Protein CRBN), the “pIC50 (M)” value was determined as 8.29 M.

Regarding `C[C@H](NC(=O)CNC(=O)CNC(=O)CN)C(=O)N[C@H]1CC(=O)NC1=O` [GGGAcN] (H-GGGA-Aspartimide), in data set [2] (setting [8]), the IC50 was 3.44e-07 M. In addition, the Kd in data set [2] (setting [9]) and in data set [2] (setting [12]) was 2.42e-07 M throughout.

B1: Fmoc-GGGFcN (peptide)
peptide: Fmoc-GGGF[Aspartimide]
SMILES: O=C(CNC(=O)CNC(=O)OCC1c2ccccc2-c2ccccc21)NCC(=O)N[C@@H](Cc1ccccc1)C(=O)N[C@H]1CC(=O)NC1=O
notes: pentapeptide; the C-terminal N is cyclised to the C-terminal cyclic imide (aspartimide); source: synthetic peptide
On to B1, for which the IC50 in data set [5] came to 52.4 nM.

B2: GGGAcN (peptide)
peptide: GGGA[Aspartimide]
notes: pentapeptide; the C-terminal N is cyclised to the C-terminal cyclic imide (aspartimide); The sheet prints no Fmoc for this peptide; also called pentapeptide bearing AcN; source: synthetic peptide
On to B2, for which the Kd in data set [5] was 242 nM.

B3: GGGAepicN (peptide)
peptide: GGGA[epicN]
notes: pentapeptide; the C-terminal N is cyclised to the aspartimide and is the epimer of that in GGGAcN; The sheet prints no Fmoc for this peptide; also called pentapeptide bearing AepicN; source: synthetic peptide
Regarding B3, the Kd in data set [5] came out at 7850 nM.
